Legend:
Assay type in all cases: functional
[1] = tested on: A549; test: Cytotoxicity against Homo sapiens (human) A549 cells at 1 x 10^-6 mol/L after 48 hr by MTT assay; details: A549, 48 h
[2] = tested on: A549; test: Cytotoxicity against Homo sapiens (human) A549 cells at 10 x 10^-6 mol/L after 48 hr by MTT assay; details: A549, 48 h
[3] = tested on: A549; test: Cytotoxicity against Homo sapiens (human) A549 cells at 0.1 x 10^-6 mol/L after 48 hr by MTT assay; details: A549, 48 h
[4] = tested on: SMMC-7721; test: Cytotoxicity against Homo sapiens (human) SMMC7721 cells at 10 x 10^-6 mol/L after 48 hr by MTT assay; details: SMMC-7721, 48 h
[5] = tested on: SMMC-7721; test: Cytotoxicity against Homo sapiens (human) SMMC7721 cells at 1 x 10^-6 mol/L after 48 hr by MTT assay; details: SMMC-7721, 48 h
[6] = tested on: HL-60; test: Cytotoxicity against Homo sapiens (human) HL60 cells at 10 x 10^-6 mol/L after 48 hr by MTT assay; details: HL-60, 48 h
[7] = tested on: SMMC-7721; test: Cytotoxicity against Homo sapiens (human) SMMC7721 cells at 0.1 x 10^-6 mol/L after 48 hr by MTT assay; details: SMMC-7721, 48 h
[8] = tested on: HL-60; test: Cytotoxicity against Homo sapiens (human) HL60 cells at 1 x 10^-6 mol/L after 48 hr by MTT assay; details: HL-60, 48 h
[9] = tested on: HL-60; test: Cytotoxicity against Homo sapiens (human) HL60 cells at 0.1 x 10^-6 mol/L after 48 hr by MTT assay; details: HL-60, 48 h
[10] = tested on: BGC-823; test: Cytotoxicity against Homo sapiens (human) BGC823 cells at 10 x 10^-6 mol/L after 48 hr by MTT assay; details: BGC-823, 48 h
[11] = tested on: BGC-823; test: Cytotoxicity against Homo sapiens (human) BGC823 cells at 0.1 x 10^-6 mol/L after 48 hr by MTT assay; details: BGC-823, 48 h
[12] = tested on: BGC-823; test: Cytotoxicity against Homo sapiens (human) BGC823 cells at 1 x 10^-6 mol/L after 48 hr by MTT assay; details: BGC-823, 48 h

SMILES	inhibition at 1 µM [1]	inhibition at 10 µM [2]	inhibition at 0.1 µM [3]	inhibition at 10 µM [4]	inhibition at 1 µM [5]	inhibition at 10 µM [6]	inhibition at 0.1 µM [7]	inhibition at 1 µM [8]	inhibition at 0.1 µM [9]	inhibition at 10 µM [10]	inhibition at 0.1 µM [11]	inhibition at 1 µM [12]
CCOC(=O)[C@H](CCC(=O)OCCOc1no[n+]([O-])c1S(=O)(=O)c1ccccc1)NC(=O)c1ccc(CCc2c[nH]c3[nH]c(N)nc(=O)c23)cc1	< 50%	< 50%	< 50%	< 50%	< 50%	< 50%	< 50%	50%	< 50%	< 50%	< 50%	< 50%
CCOC(=O)[C@H](CCC(=O)OC(C)COc1no[n+]([O-])c1S(=O)(=O)c1ccccc1)NC(=O)c1ccc(CCc2c[nH]c3[nH]c(N)nc(=O)c23)cc1 (stereo partly drawn)	< 50%	< 50%	< 50%	< 50%	< 50%	< 50%	< 50%	> 80%	> 80%	< 50%	< 50%	> 80%
CCOC(=O)[C@H](CCC(=O)OCCCOc1no[n+]([O-])c1S(=O)(=O)c1ccccc1)NC(=O)c1ccc(CCc2c[nH]c3[nH]c(N)nc(=O)c23)cc1	< 50%	< 50%	< 50%	< 50%	< 50%	< 50%	< 50%	50%	< 50%	< 50%	< 50%	< 50%
CCOC(=O)[C@H](CCC(=O)OCCCCOc1no[n+]([O-])c1S(=O)(=O)c1ccccc1)NC(=O)c1ccc(CCc2c[nH]c3[nH]c(N)nc(=O)c23)cc1	< 50%	< 50%	< 50%	< 50%	> 80%	< 50%	< 50%	50%	50%	< 50%	< 50%	> 80%
CCOC(=O)[C@H](CCC(=O)OCC#CCOc1no[n+]([O-])c1S(=O)(=O)c1ccccc1)NC(=O)c1ccc(CCc2c[nH]c3[nH]c(N)nc(=O)c23)cc1	< 50%	< 50%	< 50%	< 50%	50%	50%	< 50%	> 80%	< 50%	–	< 50%	50%
CCOC(=O)[C@H](CCC(=O)OCCCCCOc1no[n+]([O-])c1S(=O)(=O)c1ccccc1)NC(=O)c1ccc(CCc2c[nH]c3[nH]c(N)nc(=O)c23)cc1	50%	< 50%	< 50%	< 50%	< 50%	< 50%	< 50%	> 80%	> 80%	< 50%	50%	50%
CCOC(=O)[C@H](CCC(=O)OCCCCCCOc1no[n+]([O-])c1S(=O)(=O)c1ccccc1)NC(=O)c1ccc(CCc2c[nH]c3[nH]c(N)nc(=O)c23)cc1	< 50%	< 50%	< 50%	< 50%	> 80%	< 50%	< 50%	> 80%	< 50%	< 50%	< 50%	50%
CCOC(=O)[C@H](CCC(=O)OCCOCCOc1no[n+]([O-])c1S(=O)(=O)c1ccccc1)NC(=O)c1ccc(CCc2c[nH]c3[nH]c(N)nc(=O)c23)cc1	< 50%	–	< 50%	–	< 50%	–	< 50%	> 80%	< 50%	–	< 50%	< 50%
Nc1nc2[nH]cc(CCc3ccc(C(=O)N[C@@H](CCC(=O)O)C(=O)O)cc3)c2c(=O)[nH]1 [PEMETREXED DISODIUM]	< 50%	< 50%	< 50%	< 50%	< 50%	> 80%	< 50%	> 80%	50%	50%	< 50%	< 50%
